From patent US20020187126A1, “Methods for viral oncoapoptosis in cancer therapy” (priority 2001, published 2002)

Experiments:
primary MEF cells = assay: Phase-contrast microscopy and Hoechst staining of infected or treated MEF cells; format: cell-based, mouse; details: Hoechst dye, 15 h
From the text: Cells and viruses. All cells were maintained in Dulbecco's modified Eagle's medium (DMEM) containing 5% fetal bovine serum. Human larynx epidermoid carcinoma HEp-2 (Moore, Cancer Res.1955, 15:598-605), epithelial cervical carcinoma HeLa S3 (Puck, et al, J. Exp. Med.1956, 103:273-284, osteosarcoma 143B (Post and Roizman, Cell 1981, 25:227-32), and African green monkey kidney Vero (Yasumura and Kawakita, Nippon Rinsho 1963, 21:1209) cells were obtained from the American Type Culture Collection (Rockville, Md. V2.2 is a derivative Vero cell line, which carries a stably integrated copy of the ICP27 gene (Rice and Knipe, J Virol. 1990, 64:1704-15). Adenovirus type 5 transformed human primary embryonal kidney 293 (Graham et al., J Gen Virol. 1977, 36:59-74) and SV40 T antigen expressing 293T cells were obtained from the ATCC. […]
To assess whether rdHSV-1 triggers apoptosis in infected MEF, cell morphologies were documented by phase-contrast microscopy and condensed nuclei were visualized following staining with a fluorescent Hoechst dye. […] Cells were analyzed 15 h post-infection. […] Few, if any, cells with condensed nuclei were detected following infection with either rdHSV-1 strain. […]

[1] = test system: primary human foreskin fibroblast (HFF) cells; assay: DNA laddering by ethidium bromide staining in HFF cells; format: cell-based; details: low molecular weight DNA
Method: (§1) Biochemical induction of apoptosis. Cell apoptosis was induced by the addition of staurosporine (Calbiochem, San Diego, Calif.) to the medium at a final concentration of either 1 or 2 μM. Cells were maintained in the presence of staurosporine for 24 h. TNF (Sigma) was added directly to medium at a final concentration of 10 ng/ml in combination with cycloheximide (Sigma) at a final concentration of 10 μg/ml for 24 h.
DNA laddering by ethidium bromide staining. Low molecular weight DNA was isolated from cells as described (Koyama and Miwa, J. Virol. 1997, 71:2567; Aubert and Blaho, J. Virol. 1999, 73:2803). The DNA samples were subjected to electropheresis in a horizontal 1.5% agarose gel, followed by staining with 10 μg/ml ethidium bromide. DNA was visualilzed by UV light transillumination and photographed with Polaroid 67 film.
(§2) The transformed cell lines we analyzed above were of human origin. Thus, it was necessary to confirm our MEF cell results using a primary human cell line. We assessed the p53 status, the susceptibility of rdHSV-1 infection, and the ability to undergo apoptosis of primary human foreskin fibroblast (HFF) cells by immunoblotting, Hoechst staining, and DNA laddering assays. […] Finally, we stained the infected and treated HFF cells with Hoechst DNA dye and visualized cellular and nuclear morphologies by fluorescence and phase-contrast microscopy. […]

[2] = test system: primary human foreskin fibroblast (HFF) cells; assay: Hoechst staining, fluorescence and phase-contrast microscopy of HFF cells; format: cell-based; details: Hoechst DNA dye
Method: as §1
Microscopic analyses and computer graphics. Infected cell phenotypes were documented by phase-contrast light microscopy using an Olympus CK2/PM-10AK3 system with an attached 35 mm camera. For analyses of chromatin condensation, cells were grown and infected (as described above) in a 35-mm plate. At 24 hours post infection, the cells were incubated with the DNA dye Hoechst 33258 (Sigma) at a final concentration of 5 μg/ml in PBS for 15 minutes at 37° C. […]
as §2, with “Thus, it was necessary to confirm our MEF cell results using a primary human cell line.” left out

293 cells = assay: Immunoblots for PARP, caspase-3 and p53 in infected or treated 293 cells; format: cell-based, human
Method: Cells and viruses. All cells were maintained in Dulbecco's modified Eagle's medium (DMEM) containing 5% fetal bovine serum. […]
Extraction of cells and denaturing gel electrophoresis. Whole extracts of cells were obtained as previously described (Aubert and Blaho, J Virol. 1999, 73:2803-2813; Aubert et al., J. Virol. 1999, 73:10359-70) Protein concentrations were measured using a modified Bradford assay (Biorad) as recommended by the vendor. […]
The results above indicate that cells whose p53 is undermodified are susceptible to apoptosis triggered by rdHSV-1 while those which accumulate phosphorylated p53 are resistant. To confirm the prediction that the amount of phosphorylated p53 present in a given cell is an accurate indicator of whether the cell will be killed by an rdHSV-1, 293 cells were analyzed. […]

`CN[C@@H]1C[C@H]2O[C@@](C)([C@@H]1OC)n1c3ccccc3c3c4c(c5c6ccccc6n2c5c31)C(=O)NC4` [staurosporine] was tested, and the “cells with condensed nuclei / chromatin” value (primary MEF cells) was “significant number of small apoptotic cells which contained condensed chromatin”, the “DNA laddering / fragmentation” value [1] was “DNA fragmentation that migrated as a smear” and the “condensed chromatin / features of apoptosis” value [2] was “showed features indicative of apoptosis”. The “signs of apoptosis (PARP processing)” value (293 cells; environmental stimulators, double dose of STS) was “no signs of apoptosis were detected” and the “apoptosis (PARP and caspase-3 processing)” value (293 cells; presence or absence of CHX) was “did not undergo apoptosis”.
